{"source": "patent US20250313533A1", "about": "“QUINOLINE CARBOXYLIC ACID ESTER COMPOUND AND PREPARATION METHOD AND USE THEREOF” (priority 2019, published 2025)", "key": {"[1]": {"tested_on": "stem rot in sweet potatoes", "test": "whole plant or invertebrate", "settings": "read-out: efficacy against stem rot in sweet potatoes"}, "[2]": {"tested_on": "pathogenic bacteria causing fire blight in pears", "test": "In vitro bactericidal activity, fire blight in pears", "assay_type": "cell-based, erwinia", "settings": "Erwinia, read-out: inhibitory rate; for inhibition at 1 ppm: dosage 1 ppm; for inhibition at 5 ppm: dosage 5 ppm"}, "cucumber seedlings": {"tested_on": "cucumber seedlings", "test": "Safety for plant growth after application", "assay_type": "in vivo", "settings": "dosage 200 ppm", "summary_of_the_method": "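Safety to the crop is assessed on cucumber seedlings in indoor pots by tracking how treatment alters leaf area, chlorophyll level and height growth rate.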"}, "[3]": {"tested_on": "fruit blotch in watermelons", "test": "whole plant or invertebrate", "settings": "read-out: efficacy against fruit blotch in watermelons"}, "[4]": {"tested_on": "pathogenic bacteria causing bacterial wilt in tobacco", "test": "whole plant or invertebrate", "assay_type": "cell-based, ralstonia", "settings": "read-out: inhibitory rate"}, "[5]": {"tested_on": "pathogenic bacteria causing black shank in potatoes", "test": "In vitro bactericidal activity, black shank in potatoes", "assay_type": "cell-based", "settings": "read-out: inhibitory rate; for inhibition at 1 ppm: dosage 1 ppm; for inhibition at 5 ppm: dosage 5 ppm"}, "[6]": {"tested_on": "pathogenic bacteria causing bacterial wilt in cassava", "test": "organism not typed", "assay_type": "cell-based", "settings": "read-out: inhibitory rate"}, "black shank in potatoes": {"tested_on": "black shank in potatoes", "test": "Living crops in vivo protective activity, potatoes (root irrigation)", "settings": "Solanum tuberosum, read-out: efficacy against black shank in potatoes; for pest or weed control at 5 ppm: dosage 5 ppm; for pest or weed control at 10 ppm: dosage 10 ppm", "procedure": "Root irrigation was carried out on the potatoes for tests according to the designed concentration of the agents. The dosage for each plant was 200 mL and was kept consistent (also for the control). The black shank bacteria were inoculated on the second day after the application. The results were investigated according to the disease condition."}, "[7]": {"tested_on": "soft rot in Chinese cabbages", "test": "whole plant or invertebrate", "settings": "48 h, read-out: efficacy against soft rot in Chinese cabbages"}, "[8]": {"tested_on": "pathogenic bacteria causing black rot in Chinese cabbages", "test": "In vitro bactericidal activity, black rot in Chinese cabbages", "assay_type": "cell-based, xanthomonas", "settings": "Xanthomonas, read-out: inhibitory rate; for inhibition at 1 ppm: dosage 1 ppm; for inhibition at 5 ppm: dosage 5 ppm"}, "[9]": {"tested_on": "pathogenic bacteria causing fruit blotch in watermelons", "test": "In vitro bactericidal activity, fruit blotch in watermelons", "assay_type": "cell-based, acidovorax", "settings": "read-out: inhibitory rate; for inhibition at 1 ppm: dosage 1 ppm; for inhibition at 5 ppm: dosage 5 ppm"}, "[10]": {"tested_on": "pathogenic bacteria causing bacterial blight in rice", "test": "whole plant or invertebrate", "assay_type": "cell-based, xanthomonas", "settings": "read-out: inhibitory rate"}, "bacterial blight in rice": {"tested_on": "bacterial blight in rice", "test": "whole plant or invertebrate", "settings": "Oryza sativa, read-out: efficacy against bacterial blight in rice"}, "[11]": {"tested_on": "indoor potted cucumber seedlings", "test": "Effect of improving growth and development of crops", "assay_type": "in vivo", "set-up": "Rate of growth rate increase (%): concentration or dose not given beside the values", "settings": "versus blank control; for Rate of chlorophyll content increase (%) / Rate of leaf area increase (%): 14 days after application; for Rate of growth rate increase (%): plant height 14 days after application; for Rate of leaf area increase (%): second leaf", "summary_of_the_method": "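Growth effects were scored as percent increases in height growth rate, second-leaf area and chlorophyll (SPAD meter), comparing values taken before and 14 days after application.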"}, "[12]": {"tested_on": "pathogenic bacteria causing stem rot in sweet potatoes", "test": "In vitro bactericidal activity, stem rot in sweet potatoes", "assay_type": "cell-based, dikia", "settings": "read-out: inhibitory rate; for inhibition at 1 ppm: dosage 1 ppm; for inhibition at 5 ppm: dosage 5 ppm"}, "[13]": {"tested_on": "pathogenic bacteria causing bacterial angular leaf spot in cucumbers", "test": "In vitro bactericidal activity, bacterial angular leaf spot in cucumbers", "assay_type": "cell-based, pseudomonas", "settings": "read-out: inhibitory rate; for inhibition at 1 ppm: dosage 1 ppm; for inhibition at 5 ppm: dosage 5 ppm"}, "[14]": {"tested_on": "bacterial wilt in tobacco", "test": "whole plant or invertebrate", "settings": "Nicotiana tabacum, read-out: efficacy against bacterial wilt in tobacco"}}, "data": [{"smiles": "CCNc1cc2c(cc1F)c(=O)c(C(=O)OCCOC)cn2C1CC1", "note": "[Compound 408]", "values": [{"measurement": "pest or weed control at 5 ppm", "setting": "[1]", "result": "≥ 90", "unit": "%"}, {"measurement": "pest or weed control at 10 ppm", "setting": "[1]", "result": "≥ 90", "unit": "%"}, {"measurement": "inhibition at 1 ppm", "setting": "[2]", "result": "≥ 90", "unit": "%"}, {"measurement": "inhibition at 5 ppm", "setting": "[2]", "result": "≥ 90", "unit": "%"}, {"measurement": "safety for plant growth (discoloration, necrosis, wilt, malformation)", "setting": "cucumber seedlings", "result": "safe for plant growth"}, {"measurement": "pest or weed control at 5 ppm", "setting": "[3]", "result": "≥ 90", "unit": "%"}, {"measurement": "pest or weed control at 10 ppm", "setting": "[3]", "result": "≥ 90", "unit": "%"}, {"measurement": "inhibition at 1 ppm", "setting": "[4]", "result": "≥ 90", "unit": "%"}, {"measurement": "inhibition at 5 ppm", "setting": "[4]", "result": "≥ 90", "unit": "%"}, {"measurement": "inhibition at 1 ppm", "setting": "[5]", "result": "≥ 90", "unit": "%"}, {"measurement": "inhibition at 5 ppm", "setting": "[5]", "result": "≥ 90", "unit": "%"}, {"measurement": "inhibition at 1 ppm", "setting": "[6]", "result": "≥ 90", "unit": "%"}, {"measurement": "inhibition at 5 ppm", "setting": "[6]", "result": "≥ 90", "unit": "%"}, {"measurement": "pest or weed control at 5 ppm", "setting": "black shank in potatoes", "result": "≥ 90", "unit": "%"}, {"measurement": "pest or weed control at 10 ppm", "setting": "black shank in potatoes", "result": "≥ 90", "unit": "%"}, {"measurement": "pest or weed control at 5 ppm", "setting": "[7]", "result": "≥ 90", "unit": "%"}, {"measurement": "pest or weed control at 10 ppm", "setting": "[7]", "result": "≥ 90", "unit": "%"}, {"measurement": "inhibition at 1 ppm", "setting": "[8]", "result": "≥ 90", "unit": "%"}, {"measurement": "inhibition at 5 ppm", "setting": "[8]", "result": "≥ 90", "unit": "%"}, {"measurement": "inhibition at 1 ppm", "setting": "[9]", "result": "≥ 90", "unit": "%"}, {"measurement": "inhibition at 5 ppm", "setting": "[9]", "result": "≥ 90", "unit": "%"}, {"measurement": "inhibition at 1 ppm", "setting": "[10]", "result": "≥ 90", "unit": "%"}, {"measurement": "inhibition at 5 ppm", "setting": "[10]", "result": "≥ 90", "unit": "%"}, {"measurement": "pest or weed control at 5 ppm", "setting": "bacterial blight in rice", "result": "≥ 90", "unit": "%"}, {"measurement": "pest or weed control at 10 ppm", "setting": "bacterial blight in rice", "result": "≥ 90", "unit": "%"}, {"measurement": "Rate of chlorophyll content increase (%)", "setting": "[11]", "result": 18, "unit": "%"}, {"measurement": "Rate of growth rate increase (%)", "setting": "[11]", "result": 12, "unit": "%"}, {"measurement": "Rate of leaf area increase (%)", "setting": "[11]", "result": 12, "unit": "%"}, {"measurement": "inhibition at 1 ppm", "setting": "[12]", "result": "≥ 90", "unit": "%"}, {"measurement": "inhibition at 5 ppm", "setting": "[12]", "result": "≥ 90", "unit": "%"}, {"measurement": "inhibition at 1 ppm", "setting": "[13]", "result": "≥ 90", "unit": "%"}, {"measurement": "inhibition at 5 ppm", "setting": "[13]", "result": "≥ 90", "unit": "%"}, {"measurement": "pest or weed control at 5 ppm", "setting": "[14]", "result": "≥ 90", "unit": "%"}, {"measurement": "pest or weed control at 10 ppm", "setting": "[14]", "result": "≥ 90", "unit": "%"}]}, {"smiles": "CN(C)c1cc2c(cc1F)c(=O)c(C(=O)OCCO)cn2C1CC1", "note": "[Compound 413]", "values": [{"measurement": "pest or weed control at 5 ppm", "setting": "[1]", "result": "≥ 90", "unit": "%"}, {"measurement": "pest or weed control at 10 ppm", "setting": "[1]", "result": "≥ 90", "unit": "%"}, {"measurement": "inhibition at 1 ppm", "setting": "[2]", "result": "≥ 90", "unit": "%"}, {"measurement": "inhibition at 5 ppm", "setting": "[2]", "result": "≥ 90", "unit": "%"}, {"measurement": "safety for plant growth (discoloration, necrosis, wilt, malformation)", "setting": "cucumber seedlings", "result": "safe for plant growth"}, {"measurement": "pest or weed control at 5 ppm", "setting": "[3]", "result": "≥ 90", "unit": "%"}, {"measurement": "pest or weed control at 10 ppm", "setting": "[3]", "result": "≥ 90", "unit": "%"}, {"measurement": "inhibition at 1 ppm", "setting": "[4]", "result": "≥ 90", "unit": "%"}, {"measurement": "inhibition at 5 ppm", "setting": "[4]", "result": "≥ 90", "unit": "%"}, {"measurement": "inhibition at 1 ppm", "setting": "[5]", "result": "≥ 90", "unit": "%"}, {"measurement": "inhibition at 5 ppm", "setting": "[5]", "result": "≥ 90", "unit": "%"}, {"measurement": "inhibition at 1 ppm", "setting": "[6]", "result": "≥ 90", "unit": "%"}, {"measurement": "inhibition at 5 ppm", "setting": "[6]", "result": "≥ 90", "unit": "%"}, {"measurement": "pest or weed control at 5 ppm", "setting": "black shank in potatoes", "result": "≥ 90", "unit": "%"}, {"measurement": "pest or weed control at 10 ppm", "setting": "black shank in potatoes", "result": "≥ 90", "unit": "%"}, {"measurement": "pest or weed control at 5 ppm", "setting": "[7]", "result": "≥ 90", "unit": "%"}, {"measurement": "pest or weed control at 10 ppm", "setting": "[7]", "result": "≥ 90", "unit": "%"}, {"measurement": "inhibition at 1 ppm", "setting": "[8]", "result": "≥ 90", "unit": "%"}, {"measurement": "inhibition at 5 ppm", "setting": "[8]", "result": "≥ 90", "unit": "%"}, {"measurement": "inhibition at 1 ppm", "setting": "[9]", "result": "≥ 90", "unit": "%"}, {"measurement": "inhibition at 5 ppm", "setting": "[9]", "result": "≥ 90", "unit": "%"}, {"measurement": "inhibition at 1 ppm", "setting": "[10]", "result": "≥ 90", "unit": "%"}, {"measurement": "inhibition at 5 ppm", "setting": "[10]", "result": "≥ 90", "unit": "%"}, {"measurement": "pest or weed control at 5 ppm", "setting": "bacterial blight in rice", "result": "≥ 90", "unit": "%"}, {"measurement": "pest or weed control at 10 ppm", "setting": "bacterial blight in rice", "result": "≥ 90", "unit": "%"}, {"measurement": "Rate of chlorophyll content increase (%)", "setting": "[11]", "result": 13, "unit": "%"}, {"measurement": "Rate of growth rate increase (%)", "setting": "[11]", "result": 15, "unit": "%"}, {"measurement": "Rate of leaf area increase (%)", "setting": "[11]", "result": 16, "unit": "%"}, {"measurement": "inhibition at 1 ppm", "setting": "[12]", "result": "≥ 90", "unit": "%"}, {"measurement": "inhibition at 5 ppm", "setting": "[12]", "result": "≥ 90", "unit": "%"}, {"measurement": "inhibition at 1 ppm", "setting": "[13]", "result": "≥ 90", "unit": "%"}, {"measurement": "inhibition at 5 ppm", "setting": "[13]", "result": "≥ 90", "unit": "%"}, {"measurement": "pest or weed control at 5 ppm", "setting": "[14]", "result": "≥ 90", "unit": "%"}, {"measurement": "pest or weed control at 10 ppm", "setting": "[14]", "result": "≥ 90", "unit": "%"}]}]}
